In patent US9902725B2, “Heterocyclic derivatives as RORgamma modulators” (GENFIT, priority 2014, dated 2018) one finds IC50 data, which are given here for 24 molecules.

SMILES strings stand for the structures. Some results are limits rather than exact numbers.

The assay concerns the target T1, RORγt ligand-binding domain (RORγt-LBD) (Homo sapiens, UniProt P51449).
T1 construct: 20 nM recombinantly expressed RORγ-LBD fused to GST
T1 sequence (P51449 269-508 limits assumed): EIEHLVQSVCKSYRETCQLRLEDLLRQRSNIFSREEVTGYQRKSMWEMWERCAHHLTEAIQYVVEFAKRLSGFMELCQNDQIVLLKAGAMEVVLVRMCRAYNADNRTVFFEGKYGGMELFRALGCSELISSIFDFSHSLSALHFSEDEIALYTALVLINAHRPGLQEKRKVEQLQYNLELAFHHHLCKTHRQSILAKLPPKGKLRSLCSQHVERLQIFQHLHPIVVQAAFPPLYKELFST
As to the kind of experiment: Time-resolved FRET (TR-FRET) RORγt coactivator assay. Type of assay: biochemical. Conditions: GST-RORγ-LBD, biotinylated RIP140 peptide, coactivator displacement. The source says:
Time-resolved FRET (TR-FRET) RORγt coactivator assay was used to identify RORγ modulator compounds with ligand-dependent coactivator displacement. The assay uses a d2-labeled anti-GST antibody, synthetic N-terminally biotinylated peptide which is derived from nuclear receptor coactivator protein RIP140, and a RORγt ligand-binding domain (RORγt-LBD) that is tagged with glutathione-S-transferase (GST). The influence of compounds on the RORγ-peptide interaction relies on the binding dependent energy transfer from a donor to an acceptor fluorophore attached to the binding partner of interest. […] For reduction of background from compound fluorescence, TR-FRET method makes use of generic fluorophore labels and time resolved detection.
The assays were done in a final volume of 20 μl in a 384 well plate in a CHAPS buffer (2 mM CHAPS; 1 mM DTT, 2 mM EDTA; 0.1% BSA), containing 20 nM recombinantly expressed RORγ-LBD fused to GST, 30 nM N-terminally biotinylated peptide, 1 nM streptavidin-terbium conjugate and 20 nM d2 labeled-anti-GST. Test compounds were diluted using 10 mM stock solution. The range of the final compound concentrations used in this test was from 0.3 nM to 30 μM (logarithmic scale). DMSO content of the samples was kept at 1%. The assay was equilibrated for 2 hours in the dark at room temperature in 384 well plates (Falcon). The signal was detected by an Ultra384 reader (TECAN). The results were visualized by plotting the ratio between the emitted light at 665 nm and 620 nm. A basal level of RORγ-peptide formation is observed in the absence of added compound. Compounds that promote coactivator displacement induce a concentration-dependent decrease in time-resolved fluorescent signal. Data were collected and analyzed using GraphPad Prism software (GraphPad Software V5.02, San Diego Calif. USA). IC50 in μM and Emax in % were reported for each compound.
With `CC(C)(C)OC(=O)CCc1c[nH]c2ccc(CC(=O)NC(c3ccccc3)c3ccccc3N3CCCCC3)cc12` (stereo not drawn) [Cpd. 2, tert-butyl 3-{5-[({phenyl[2-(piperidin-1-yl)phenyl]methyl}carbamoyl)methyl]-1H-indol-3-yl}propanoate], the IC50 is 1000 to 10000 nM.
Under `Cc1ccc(C(NC(=O)Cc2ccc3[nH]cc(CCC(=O)O)c3c2)c2ccccc2)c(C)c1` (stereo not drawn) [Cpd. 11, 3-[5-({[(2,4-dimethylphenyl)(phenyl)methyl]carbamoyl}methyl)-1H-indol-3-yl]propanoic acid] stands under 1000 nM.
Under `Cc1ccc(C)c(C(NC(=O)Cc2ccc3[nH]cc(CCC(=O)O)c3c2)c2ccccc2)c1` (stereo not drawn) [Cpd. 13, 3-[5-({[(2,5-dimethylphenyl)(phenyl)methyl]carbamoyl}methyl)-1H-indol-3-yl]propanoic acid] stands under 1000 nM; under `Cc1cc(Cl)ccc1C(NC(=O)Cc1ccc2[nH]cc(CCC(=O)OC(C)(C)C)c2c1)c1ccccc1` (stereo not drawn) [Cpd. 34, tert-butyl 3-[5-({[(4-chloro-2-methylphenyl)(phenyl)methyl]carbamoyl}methyl)-1H-indol-3-yl]propanoate], 1000 to 10000 nM; under `COC(=O)Cc1c[nH]c2ccc(CC(=O)NC(c3ccccc3)c3ccccc3N3CCCCC3)cc12` (stereo not drawn) [Cpd. 40, methyl 2-{5-[({phenyl[2-(piperidin-1-yl)phenyl]methyl}carbamoyl)methyl]-1H-indol-3-yl}acetate], under 1000 nM.
Under `Cc1ccc(Cl)c(C(NC(=O)Cc2ccc3[nH]cc(CCC(=O)OC(C)(C)C)c3c2)c2ccccc2)c1` (stereo not drawn) [Cpd. 41, tert-butyl 3-[5-({[(2-chloro-5-methylphenyl)(phenyl)methyl]carbamoyl}methyl)-1H-indol-3-yl]propanoate] stands 1000 to 10000 nM; under `Cc1cc(F)ccc1C(NC(=O)Cc1ccc2[nH]cc(CCC(=O)OC(C)(C)C)c2c1)c1ccccc1` (stereo not drawn) [Cpd. 45, tert-butyl 3-[5-({[(4-fluoro-2-methylphenyl)(phenyl)methyl]carbamoyl}methyl)-1H-indol-3-yl]propanoate], 10000 to 30000 nM.
Regarding `CC(C)(C)OC(=O)CCc1c[nH]c2ccc(CC(=O)NC(c3ccccc3)c3ccccc3N)cc12` (stereo not drawn) [Cpd. 51, tert-butyl 3-[5-({[(2-aminophenyl)(phenyl)methyl]carbamoyl}methyl)-1H-indol-3-yl]propanoate], the IC50 lay in the range of 1000 to 10000 nM.
Under `CN(C)c1ccccc1C(NC(=O)Cc1ccc2[nH]cc(CCC(=O)OC(C)(C)C)c2c1)c1ccccc1` (stereo not drawn) [Cpd. 53, tert-butyl 3-{5-[({[2-(dimethylamino)phenyl](phenyl)methyl}carbamoyl)methyl]-1H-indol-3-yl}propanoate] stands 1000 to 10000 nM; under `CC(C)CC(NC(=O)Cc1ccc2[nH]cc(CCC(=O)OC(C)(C)C)c2c1)c1ccccc1N1CCOCC1` (stereo not drawn) [Cpd. 57, tert-butyl 3-{5-[({3-methyl-1-[2-(morpholin-4-yl)phenyl]butyl}carbamoyl)methyl]-1H-indol-3-yl}propanoate], 1000 to 10000 nM.
Under `N#Cc1ccc(C(NC(=O)Cc2ccc3[nH]cc(CCC(=O)O)c3c2)c2ccccc2)c(N2CCCC2)c1` (stereo not drawn) [Cpd. 60, 3-{5-[({[4-cyano-2-(pyrrolidin-1-yl)phenyl](phenyl)methyl}carbamoyl)methyl]-1H-indol-3-yl}propanoic acid] stands under 1000 nM; under `CC(C)(C)OC(=O)CCc1c[nH]c2ccc(CC(=O)NC(c3ccccc3)c3cc(Cl)ccc3N3CCCCC3)cc12` (stereo not drawn) [Cpd. 61, tert-butyl 3-{5-[({[5-chloro-2-(piperidin-1-yl)phenyl](phenyl)methyl}carbamoyl)methyl]-1H-indol-3-yl}propanoate], 1000 to 10000 nM.
Under `COC(=O)Cc1c[nH]c2ccc(CC(=O)NC(c3ccccc3)c3ccc(Br)cc3N3CCCC3)cc12` (stereo not drawn) [Cpd. 66, methyl 2-{5-[({[4-bromo-2-(pyrrolidin-1-yl)phenyl](phenyl)methyl}carbamoyl)methyl]-1H-indol-3-yl}acetate] stands under 1000 nM; under `COC(=O)Cc1c[nH]c2ccc(NC(=O)NC(c3ccccc3)c3ccccc3N3CCCCC3)cc12` (stereo not drawn) [Cpd. 68, methyl 2-{5-[({phenyl[2-(piperidin-1-yl)phenyl]methyl}carbamoyl)amino]-1H-indol-3-yl}acetate], 1000 to 10000 nM.
`COC(=O)Cc1c[nH]c2ccc(CC(=O)NC(c3ccccc3)c3ccccc3N(C)C)cc12` (stereo not drawn) [Cpd. 70, methyl 2-{5-[({[2-(dimethylamino)phenyl](phenyl)methyl}carbamoyl)methyl]-1H-indol-3-yl}acetate] displayed an IC50 of under 1000 nM.
In the case of `COC(=O)Cc1c[nH]c2ccc(CC(=O)NC(c3ccccc3)c3ccccc3N3CCCC3)cc12` (stereo not drawn) [Cpd. 72, methyl 2-{5-[({phenyl[2-(pyrrolidin-1-yl)phenyl]methyl}carbamoyl)methyl]-1H-indol-3-yl}acetate], the IC50 is under 1000 nM.
For `COC(=O)Cc1c[nH]c2ccc(CC(=O)NC(c3ccccc3)c3ccccc3N3CCCCCC3)cc12` (stereo not drawn) [Cpd. 74, methyl 2-{5-[({[2-(azepan-1-yl)phenyl](phenyl)methyl}carbamoyl)methyl]-1H-indol-3-yl}acetate] the value was under 1000 nM; for `Cc1ccc(C(NC(=O)Cc2ccc3[nH]cc(CCC(=O)OC(C)(C)C)c3c2)c2ccccc2)c(N2CCOCC2)c1` (stereo not drawn) [Cpd. 80, tert-butyl 3-{5-[({[4-methyl-2-(morpholin-4-yl)phenyl](phenyl)methyl}carbamoyl)methyl]-1H-indol-3-yl}propanoate], under 1000 nM.
For `CC(C)(C)OC(=O)CCc1c[nH]c2ccc(CC(=O)NC(c3ccccc3)c3ccc(F)cc3N3CCCC3)cc12` (stereo not drawn) [Cpd. 92, tert-butyl 3-{5-[({[4-fluoro-2-(pyrrolidin-1-yl)phenyl](phenyl)methyl}carbamoyl)methyl]-1H-indol-3-yl}propanoate] the value was 1000 to 10000 nM.
Under `CC(C)(C)OC(=O)CCc1c[nH]c2ncc(NC(=O)NC(c3ccccc3)c3ccccc3N3CCCCC3)cc12` (stereo not drawn) [Cpd. 94, tert-butyl 3-{5-[({phenyl[2-(piperidin-1-yl)phenyl]methyl}carbamoyl)amino]-1H-pyrrolo[2,3-b]pyridin-3-yl}propanoate] stands 1000 to 10000 nM; under `Cc1ccc(C(NC(=O)Cc2ccc3[nH]cc(CC(=O)O)c3c2)c2ccccc2)c(N2CCOCC2)c1` (stereo not drawn) [Cpd. 97, 2-{5-[({[4-methyl-2-(morpholin-4-yl)phenyl](phenyl)methyl}carbamoyl)methyl]-1H-indol-3-yl}acetic acid], 1000 to 10000 nM; under `Cc1ccc(C(NC(=O)Cc2ccc3[nH]cc(CCC(=O)OC(C)(C)C)c3c2)c2ccc(C)s2)c(C)c1` (stereo not drawn) [Cpd. 100, tert-butyl 3-[5-({[(2,4-dimethylphenyl)(5-methylthiophen-2-yl)methyl]carbamoyl}methyl)-1H-indol-3-yl]propanoate], 1000 to 10000 nM.
For `Cc1ccc(C(NC(=O)Cc2ccc3[nH]cc(CCC(=O)OC(C)(C)C)c3c2)c2ccccc2)c(N2CCN(C)CC2)c1` (stereo not drawn) [Cpd. 102, tert-butyl 3-{5-[({[4-methyl-2-(4-methylpiperazin-1-yl)phenyl](phenyl)methyl}carbamoyl)methyl]-1H-indol-3-yl}propanoate], the IC50 fell in the range of 1000 to 10000 nM.
For `CC(C)CC(NC(=O)Cc1ccc2[nH]cc(CCC(=O)OC(C)(C)C)c2c1)c1cccc2ccccc12` (stereo not drawn) [Cpd. 104, tert-butyl 3-[5-({[3-methyl-1-(naphthalen-1-yl)butyl]carbamoyl}methyl)-1H-indol-3-yl]propanoate] the value was 1000 to 10000 nM.
